Assay: xn = mol fraction of the nth substance listed
Conditions: 100 kPa

CCCCCCCC[n+]1ccccc1.[Br-] + CC(C)[C@H](NC(=O)CN)C(=O)O + O
Conditions | electrical conductivity [S/m]
288.15 K, x2 = 0.0008946, x1 = 0.00616 | 1.33
288.15 K, x2 = 0.0008949, x1 = 0.005884 | 1.29
288.15 K, x2 = 0.0008952, x1 = 0.005575 | 1.25
288.15 K, x2 = 0.0008955, x1 = 0.005248 | 1.21
288.15 K, x2 = 0.0008958, x1 = 0.004887 | 1.17
288.15 K, x2 = 0.0008961, x1 = 0.004507 | 1.12
288.15 K, x2 = 0.0008965, x1 = 0.004077 | 1.05
288.15 K, x2 = 0.0008969, x1 = 0.003608 | 0.964
288.15 K, x2 = 0.0008974, x1 = 0.003092 | 0.861
288.15 K, x2 = 0.0008979, x1 = 0.002527 | 0.74
288.15 K, x2 = 0.0008985, x1 = 0.001896 | 0.592
288.15 K, x2 = 0.0008988, x1 = 0.001509 | 0.493
288.15 K, x2 = 0.0008992, x1 = 0.001132 | 0.388
288.15 K, x2 = 0.0008995, x1 = 0.0007259 | 0.276
288.15 K, x2 = 0.001788, x1 = 0.005723 | 1.23
288.15 K, x2 = 0.001788, x1 = 0.005981 | 1.26
288.15 K, x2 = 0.001789, x1 = 0.005422 | 1.19
288.15 K, x2 = 0.00179, x1 = 0.004738 | 1.11
288.15 K, x2 = 0.00179, x1 = 0.005091 | 1.15
288.15 K, x2 = 0.001791, x1 = 0.004351 | 1.06
288.15 K, x2 = 0.001792, x1 = 0.003932 | 0.991
288.15 K, x2 = 0.001793, x1 = 0.002974 | 0.81
288.15 K, x2 = 0.001793, x1 = 0.003476 | 0.909
288.15 K, x2 = 0.001794, x1 = 0.002419 | 0.692
288.15 K, x2 = 0.001796, x1 = 0.001458 | 0.463
288.15 K, x2 = 0.001796, x1 = 0.001805 | 0.55
288.15 K, x2 = 0.001797, x1 = 0.0007114 | 0.261
288.15 K, x2 = 0.001797, x1 = 0.001099 | 0.365
293.15 K, x2 = 0.0008946, x1 = 0.006158 | 1.51
293.15 K, x2 = 0.0008949, x1 = 0.005882 | 1.47
293.15 K, x2 = 0.0008952, x1 = 0.005573 | 1.42
293.15 K, x2 = 0.0008955, x1 = 0.005248 | 1.38
293.15 K, x2 = 0.0008958, x1 = 0.004887 | 1.32
293.15 K, x2 = 0.0008961, x1 = 0.004505 | 1.27
293.15 K, x2 = 0.0008965, x1 = 0.004077 | 1.19
293.15 K, x2 = 0.0008969, x1 = 0.003608 | 1.1
293.15 K, x2 = 0.0008974, x1 = 0.003092 | 0.974
293.15 K, x2 = 0.0008979, x1 = 0.002527 | 0.84
293.15 K, x2 = 0.0008985, x1 = 0.001896 | 0.67
293.15 K, x2 = 0.0008988, x1 = 0.001509 | 0.557
293.15 K, x2 = 0.0008992, x1 = 0.001132 | 0.437
293.15 K, x2 = 0.0008995, x1 = 0.0007259 | 0.309
293.15 K, x2 = 0.001788, x1 = 0.005721 | 1.4
293.15 K, x2 = 0.001788, x1 = 0.005981 | 1.44
293.15 K, x2 = 0.001789, x1 = 0.00542 | 1.36
293.15 K, x2 = 0.00179, x1 = 0.004736 | 1.26
293.15 K, x2 = 0.00179, x1 = 0.005091 | 1.31
293.15 K, x2 = 0.001791, x1 = 0.004351 | 1.2
293.15 K, x2 = 0.001792, x1 = 0.003932 | 1.12
293.15 K, x2 = 0.001793, x1 = 0.002972 | 0.917
293.15 K, x2 = 0.001793, x1 = 0.003476 | 1.03
293.15 K, x2 = 0.001794, x1 = 0.002419 | 0.785
293.15 K, x2 = 0.001796, x1 = 0.001458 | 0.521
293.15 K, x2 = 0.001796, x1 = 0.001805 | 0.621
293.15 K, x2 = 0.001797, x1 = 0.0007114 | 0.293
293.15 K, x2 = 0.001797, x1 = 0.001099 | 0.411
298.15 K, x2 = 0.0008946, x1 = 0.006158 | 1.7
298.15 K, x2 = 0.0008949, x1 = 0.00588 | 1.65
298.15 K, x2 = 0.0008952, x1 = 0.005573 | 1.6
298.15 K, x2 = 0.0008955, x1 = 0.005246 | 1.55
298.15 K, x2 = 0.0008958, x1 = 0.004885 | 1.49
298.15 K, x2 = 0.0008961, x1 = 0.004505 | 1.43
298.15 K, x2 = 0.0008965, x1 = 0.004077 | 1.34
298.15 K, x2 = 0.0008969, x1 = 0.003608 | 1.23
298.15 K, x2 = 0.0008974, x1 = 0.003092 | 1.1
298.15 K, x2 = 0.0008979, x1 = 0.002527 | 0.942
298.15 K, x2 = 0.0008985, x1 = 0.001896 | 0.751
298.15 K, x2 = 0.0008988, x1 = 0.001509 | 0.623
298.15 K, x2 = 0.0008992, x1 = 0.001132 | 0.489
298.15 K, x2 = 0.0008995, x1 = 0.0007259 | 0.343
298.15 K, x2 = 0.001788, x1 = 0.005721 | 1.59
298.15 K, x2 = 0.001788, x1 = 0.00598 | 1.64
298.15 K, x2 = 0.001789, x1 = 0.00542 | 1.54
298.15 K, x2 = 0.00179, x1 = 0.004736 | 1.42
298.15 K, x2 = 0.00179, x1 = 0.005091 | 1.49
298.15 K, x2 = 0.001791, x1 = 0.004349 | 1.35
298.15 K, x2 = 0.001792, x1 = 0.003932 | 1.27
298.15 K, x2 = 0.001793, x1 = 0.002972 | 1.03
298.15 K, x2 = 0.001793, x1 = 0.003476 | 1.17
298.15 K, x2 = 0.001794, x1 = 0.002419 | 0.883
298.15 K, x2 = 0.001796, x1 = 0.001458 | 0.586
298.15 K, x2 = 0.001796, x1 = 0.001805 | 0.699
298.15 K, x2 = 0.001797, x1 = 0.0007114 | 0.326
298.15 K, x2 = 0.001797, x1 = 0.001099 | 0.462
303.15 K, x2 = 0.0008946, x1 = 0.006155 | 1.91
303.15 K, x2 = 0.0008949, x1 = 0.005878 | 1.86
303.15 K, x2 = 0.0008952, x1 = 0.005571 | 1.8
303.15 K, x2 = 0.0008955, x1 = 0.005244 | 1.74
303.15 K, x2 = 0.0008958, x1 = 0.004883 | 1.67
303.15 K, x2 = 0.0008961, x1 = 0.004503 | 1.6
303.15 K, x2 = 0.0008965, x1 = 0.004075 | 1.49
303.15 K, x2 = 0.0008969, x1 = 0.003606 | 1.38
303.15 K, x2 = 0.0008974, x1 = 0.003092 | 1.22
303.15 K, x2 = 0.0008979, x1 = 0.002527 | 1.05
303.15 K, x2 = 0.0008985, x1 = 0.001896 | 0.834
303.15 K, x2 = 0.0008988, x1 = 0.001509 | 0.689
303.15 K, x2 = 0.0008992, x1 = 0.001132 | 0.543
303.15 K, x2 = 0.0008995, x1 = 0.0007259 | 0.385
303.15 K, x2 = 0.001788, x1 = 0.005719 | 1.79
303.15 K, x2 = 0.001788, x1 = 0.005978 | 1.84
303.15 K, x2 = 0.001789, x1 = 0.005417 | 1.73
303.15 K, x2 = 0.00179, x1 = 0.004734 | 1.6
303.15 K, x2 = 0.00179, x1 = 0.005087 | 1.67
303.15 K, x2 = 0.001791, x1 = 0.004349 | 1.52
303.15 K, x2 = 0.001792, x1 = 0.00393 | 1.42
303.15 K, x2 = 0.001793, x1 = 0.002972 | 1.16
303.15 K, x2 = 0.001793, x1 = 0.003474 | 1.3
303.15 K, x2 = 0.001794, x1 = 0.002419 | 0.983
303.15 K, x2 = 0.001796, x1 = 0.001458 | 0.652
303.15 K, x2 = 0.001796, x1 = 0.001805 | 0.778
303.15 K, x2 = 0.001797, x1 = 0.0007114 | 0.361
303.15 K, x2 = 0.001797, x1 = 0.001099 | 0.512
308.15 K, x2 = 0.0008946, x1 = 0.006153 | 2.17
308.15 K, x2 = 0.0008949, x1 = 0.005877 | 2.11
308.15 K, x2 = 0.0008952, x1 = 0.00557 | 2.04
308.15 K, x2 = 0.0008955, x1 = 0.005243 | 1.95
308.15 K, x2 = 0.0008958, x1 = 0.004881 | 1.86
308.15 K, x2 = 0.0008961, x1 = 0.004503 | 1.77
308.15 K, x2 = 0.0008965, x1 = 0.004075 | 1.66
308.15 K, x2 = 0.0008969, x1 = 0.003606 | 1.52
308.15 K, x2 = 0.0008974, x1 = 0.003092 | 1.35
308.15 K, x2 = 0.0008979, x1 = 0.002525 | 1.15
308.15 K, x2 = 0.0008985, x1 = 0.001896 | 0.905
308.15 K, x2 = 0.0008988, x1 = 0.001509 | 0.753
308.15 K, x2 = 0.0008992, x1 = 0.001132 | 0.6
308.15 K, x2 = 0.0008995, x1 = 0.0007259 | 0.446
308.15 K, x2 = 0.001788, x1 = 0.005717 | 2
308.15 K, x2 = 0.001788, x1 = 0.005974 | 2.06
308.15 K, x2 = 0.001789, x1 = 0.005415 | 1.94
308.15 K, x2 = 0.00179, x1 = 0.004732 | 1.78
308.15 K, x2 = 0.00179, x1 = 0.005087 | 1.86
308.15 K, x2 = 0.001791, x1 = 0.004348 | 1.68
308.15 K, x2 = 0.001792, x1 = 0.00393 | 1.58
308.15 K, x2 = 0.001793, x1 = 0.002972 | 1.28
308.15 K, x2 = 0.001793, x1 = 0.003474 | 1.44
308.15 K, x2 = 0.001794, x1 = 0.002419 | 1.09
308.15 K, x2 = 0.001796, x1 = 0.001456 | 0.714
308.15 K, x2 = 0.001796, x1 = 0.001805 | 0.853
308.15 K, x2 = 0.001797, x1 = 0.0007114 | 0.409
308.15 K, x2 = 0.001797, x1 = 0.001099 | 0.567

CCCC(=O)O + CC(CC(C)(C)C)CP(=O)([O-])CC(C)CC(C)(C)C.CCCCCCCCCCCCCC[P+](CCCCCC)(CCCCCC)CCCCCC
Conditions | viscosity [mPa·s]
298 K, x2 = 0.9022 | 950

From the CheMixHub ionic liquid set
